# In publication PMC4657098, “A Review of the Updated Pharmacophore for the Alpha 5 GABA(A) Benzodiazepine Receptor Model” (International Journal of Medicinal Chemistry, 2015):
# Where “and” joins values, the source holds several entries; their conditions need not be identical. Equal values may be shown once. Read-outs that look alike come from different tables or passages of the source.
# Assays:
# [1] = test system: baboons; settings: cited from earlier work
# [2] = test system: alcohol preferring and HAD rats; settings: cited from earlier work
# [3] = test system: Bz BS of GABA(A) receptors; settings: cited from earlier work
# [4] = target: T1, α6β3γ2 GABAA/BzR (Homo sapiens, UniProt P18507+Q16445); assay: Competition binding to HEK cell membranes, α6β3γ2; set-up: expressed in transfected cells
# [5] = target: T2, α4β3γ2 GABAA/BzR (Homo sapiens, UniProt P18507+P48169); settings: Figure 33; αxβ3γ2; read-out: Affinity Ki α4; cited from earlier work
# T2 construct: expressed in transfected cells; host or cells: LTK cells (given for XLi-093 only)
# [6] = target: T1, α6β3γ2 GABAA/BzR; set-up: expressed in transfected cells; host or cells: LTK cells (given for XLi-093 only); settings: cited from earlier work
# [7] = test system: rhesus monkeys; settings: cited from earlier work
# [8] = target: T3, α1β3γ2 GABAA/BzR (Homo sapiens, UniProt P14867+P18507); assay: Competition binding to HEK cell membranes, α1β3γ2; set-up: expressed in transfected cells; settings: Table 2; data from three separate laboratories; read-out: Affinity Ki α1
# [9] = test system: α1β3γ2 GABAA receptor; settings: cited from earlier work
# [10] = target: T4, α2β3γ2 GABAA/BzR (Homo sapiens, UniProt P18507+P47869); assay: Competition binding to HEK cell membranes, α2β3γ2; set-up: expressed in transfected cells; settings: Table 2; data from three separate laboratories; read-out: Affinity Ki α2
# [11] = test system: rats; settings: cited from earlier work
# [12] = test system: α3β3γ2 GABAA receptor; settings: cited from earlier work
# [13] = target: T5, α5β3γ2 GABAA receptor (Homo sapiens, UniProt P18507+P31644); settings: cited from earlier work
# T5 construct: expressed in transfected cells; host or cells: Xenopus oocytes
# [14] = test system: mice; settings: mice; ref Harris, DeLorey et al.; cited from earlier work
# [15] = target: T3, α1β3γ2 GABAA/BzR; set-up: expressed in transfected cells; host or cells: LTK cells (given for XLi-093 only); settings: Figure 4, read-out: Ki α1, cited from earlier work
# [16] = test system: α2β3γ2 GABAA receptor; settings: cited from earlier work
# [17] = target: T6, α3β3γ2 GABAA/BzR (Homo sapiens, UniProt P18507+P34903); set-up: expressed in transfected cells; host or cells: LTK cells (given for XLi-093 only); settings: Figure 4, read-out: Ki α3, cited from earlier work
# [18] = target: T4, α2β3γ2 GABAA/BzR; set-up: expressed in transfected cells; host or cells: LTK cells (given for XLi-093 only); settings: Figure 4, read-out: Ki α2, cited from earlier work
# [19] = test system: AD rat model; assay: Spatial water maze task in AD rat model; assay type: in vivo; settings: relative to vehicle, p < 0.05
# From the text: It is well known many Down syndrome patients develop Alzheimer's disease or a dementia with a very similar etiology.
# [20] = target: α5β3γ2 GABAA/BzR (Homo sapiens, UniProt P18507+P31644); assay: Competition binding to HEK cell membranes, α5β3γ2; set-up: expressed in transfected cells; settings: Affinity Ki α5
# [21] = target: T6, α3β3γ2 GABAA/BzR; assay: Competition binding to HEK cell membranes, α3β3γ2; set-up: expressed in transfected cells; settings: Table 2; data from three separate laboratories; read-out: Affinity Ki α3
# [22] = target: α6β3γ2 BzR/GABA(A); settings: Figure 1; LTK cells; read-out: Binding affinity α6; cited from earlier work
# [23] = target: α4β3γ2 BzR/GABA(A); settings: Figure 1; LTK cells; read-out: Binding affinity α4; cited from earlier work
# [24] = target: α5β3γ2 BzR/GABA(A); settings: Figure 1; LTK cells; read-out: Binding affinity α5; cited from earlier work
# [25] = target: α2β3γ2 BzR/GABA(A); settings: Figure 1; LTK cells; read-out: Binding affinity α2; cited from earlier work
# [26] = target: α3β3γ2 BzR/GABA(A); settings: Figure 1; LTK cells; read-out: Binding affinity α3; cited from earlier work
# [27] = target: T7, α4β2γ2 GABAA receptor (Homo sapiens, UniProt P18507+P48169); assay: Radioligand binding (McKernan and Atack), α4β2γ2; settings: Table 3; αxβ2γ2; means of two determinations; read-out: Binding affinity α4
# T7 construct: expressed in transfected cells; host or cells: HEK cells
# Description: (§1) Transfected HEK cells (beta2 gamma2 and desired alpha subtype) were harvested into phosphate-buffered saline, centrifuged at 3,000 g, and stored at −70°C until required. On the day of the assay, pellets were thawed and resuspended in sufficient volume of 50 mM Tris/acetate (pH 7.4 at 4°C) to give a total binding of approximately 1500–2000 dpm. […] Total assay volume was 0.5 mL and assays were carried out in 96-well plates and incubation time started by the addition of 0.1 mL of resuspended cell membranes. Following incubation for 1 hour at 4°C, assays were terminated by filtration through GF/B filters, washed with 10 mL ice cold buffer, dried, and then counted using a liquid scintillation counter. […] We have previously reported the synthesis of the following.
# [28] = target: T8, α2β2γ2 GABAA receptor (Homo sapiens, UniProt P18507+P47869); assay: Radioligand binding (McKernan and Atack), α2β2γ2; settings: Table 3; αxβ2γ2; means of two determinations; read-out: Binding affinity α2
# T8 construct: expressed in transfected cells; host or cells: HEK cells
# Description: as §1
# [29] = target: T9, α6β2γ2 GABAA receptor (Homo sapiens, UniProt P18507+Q16445); assay: Radioligand binding (McKernan and Atack), α6β2γ2; settings: Table 3; αxβ2γ2; means of two determinations; read-out: Binding affinity α6
# T9 construct: expressed in transfected cells; host or cells: HEK cells
# Description: as §1
# [30] = target: T10, α3β2γ2 GABAA receptor (Homo sapiens, UniProt P18507+P34903); assay: Radioligand binding (McKernan and Atack), α3β2γ2; settings: Table 3; αxβ2γ2; means of two determinations; read-out: Binding affinity α3
# T10 construct: expressed in transfected cells; host or cells: HEK cells
# Description: as §1
# [31] = target: T11, α1β2γ2 GABAA receptor (Homo sapiens, UniProt P14867+P18507); assay: Radioligand binding (McKernan and Atack), α1β2γ2; settings: Table 3; αxβ2γ2; means of two determinations; read-out: Binding affinity α1
# T11 construct: expressed in transfected cells; host or cells: HEK cells
# Description: as §1
# [32] = target: T12, α5β2γ2 GABAA receptor (Homo sapiens, UniProt P18507+P31644); assay: Radioligand binding (McKernan and Atack), α5β2γ2; settings: Table 3; αxβ2γ2; means of two determinations; read-out: Binding affinity α5
# T12 construct: expressed in transfected cells; host or cells: HEK cells
# Description: as §1
compound,measurement,setting,value
"CCCOc1cc2c(cn1)[nH]c1ccccc12.Cl [3 PBC, 3-propoxy-β-carboline hydrochloride]",activity in baboons,[1],active
same,rate at which rats self-administrated alcohol,[2]; alcohol preferring and HAD rats,reduce the rate
same,sucrose self-administration,[2],little or no effect
same,modulation,[3]; Supplement Table 1,antagonist
same,pharmacological properties compared with classical benzodiazepine receptor antagonists,[3],near GABA neutral antagonists
same,Ki,[4]; Ki α6,1000 nM
same,Ki,[5],1000 nM
same,Ki,"[6]; Figure 33, αxβ3γ2, read-out: Affinity Ki α6",> 1000 nM
COCc1ncn2c1CN(C)C(=O)c1cc(Cl)ccc1-2 [PWZ-029 (1)],ORD “difficult” trials,[7]; i.v.,increasing dose-dependent curve for successful trials
same,ORD “mixed” trials versus vehicle,[7]; i.v.,no significant results
same,"ORD, cholinergic deficits induced by scopolamine",[7]; scopolamine 0.01 mg/kg,dose-dependently reverse the cholinergic deficits
same,Ki,[8],> 300 nM and 920 nM and 362 nM
same,modulation at the α1-subunit,[9]; 0.1 μM,little or no effect
same,efficacy type at the α1 subunit,"[9]; oocytes, Sieghart et al.",very weak agonist activity
same,Ki,[10],> 300 nM and 180 nM
same,"recognition memory deficit induced by 0.3 mg/kg scopolamine, 1 h delay",[11]; 2 mg/kg,successfully reversed the deficit in recognition memory
same,"object recognition, 24 h delay","[11]; 2, 5 and 10 mg/kg",improved object recognition
same,modulation at the α3-subunit,[12]; 0.1 μM,little or no effect
same,efficacy type at the α3 subunit,"[12]; oocytes, Sieghart et al.",very weak agonist activity
same,efficacy type at the α5-subunit,[13],negative allosteric modulator
same,modulation at the α5-subunit,[13],moderate negative modulation
same,scopolamine-induced memory impairment,[14],potently reversed
same,Ki,[15]; listed as 1a,> 300 nM
same,Ki,[15]; listed as 1c,362 nM
same,Ki,[4]; Affinity Ki α6,> 300 nM
same,modulation at the α2-subunit,[16]; 0.1 μM,little or no effect
same,efficacy type at the α2 subunit,"[16]; oocytes, Sieghart et al.",very weak agonist activity
same,Ki,[17]; listed as 1a,> 300 nM
same,Ki,[17]; listed as 1c,328 nM
same,Ki,[18]; listed as 1a,> 300 nM
same,Ki,[18]; listed as 1c,180 nM
same,latency to reach the hidden platform (memory probe trials),[19],significant decrease in the latency to reach the hidden platform
same,Ki,[6]; read-out: Ki α6,> 300 nM
same,Ki,[20],38.8 nM and 30 nM and 6 nM
same,Ki,[21],> 300 nM and 328 nM
C#Cc1ccc2c(c1)C(=O)N(C)Cc1c(C(=O)OCC)ncn1-2 [RY-80 (3)],Ki,[22],28.8 nM
same,Ki,[23],5.3 nM
same,Ki,[24],0.49 nM
same,Ki,[25],21.4 nM
same,Ki,[26],25.8 nM
"C#Cc1ccc2c(c1)C(c1ccccc1)=N[C@H](C)c1c(C(=O)OCC)ncn1-2 [SH-053-R-CH3, (15)]",Ki,[27],> 5000 nM
same,Ki,[28],2380 nM
same,Ki,[29],> 5000 nM
same,Ki,[30],1180 nM
same,Ki,[31],2030 nM
same,Ki,[32],949 nM
"C#Cc1ccc2c(c1)C(c1ccccc1)=N[C@@H](C)c1c(C(=O)OCC)ncn1-2 [SH-053-S-CH3, (16)]",Ki,[27],> 5000 nM
same,Ki,[28],1260 nM
same,Ki,[29],> 5000 nM
same,Ki,[30],1250 nM
same,Ki,[31],1670 nM
same,Ki,[32],206 nM
